According to article PMC5119973 (Cancer Medicine, 2016):
pKd: −log10 of the molar value. Several values for one entry are separate records, joined by “and”; a condition that tells them apart may be missing. Equal values may be shown once.

Assays:
EPHA8 = biological target: T1, EPHA8 (Homo sapiens, UniProt P29322); experiment: KINOMEscan active-site competitive binding assay; settings: slash = two separate measurements
T1 construct: purchased DiscoveRx (KINOMEscan service)
T1 sequence (P29322 28-1005): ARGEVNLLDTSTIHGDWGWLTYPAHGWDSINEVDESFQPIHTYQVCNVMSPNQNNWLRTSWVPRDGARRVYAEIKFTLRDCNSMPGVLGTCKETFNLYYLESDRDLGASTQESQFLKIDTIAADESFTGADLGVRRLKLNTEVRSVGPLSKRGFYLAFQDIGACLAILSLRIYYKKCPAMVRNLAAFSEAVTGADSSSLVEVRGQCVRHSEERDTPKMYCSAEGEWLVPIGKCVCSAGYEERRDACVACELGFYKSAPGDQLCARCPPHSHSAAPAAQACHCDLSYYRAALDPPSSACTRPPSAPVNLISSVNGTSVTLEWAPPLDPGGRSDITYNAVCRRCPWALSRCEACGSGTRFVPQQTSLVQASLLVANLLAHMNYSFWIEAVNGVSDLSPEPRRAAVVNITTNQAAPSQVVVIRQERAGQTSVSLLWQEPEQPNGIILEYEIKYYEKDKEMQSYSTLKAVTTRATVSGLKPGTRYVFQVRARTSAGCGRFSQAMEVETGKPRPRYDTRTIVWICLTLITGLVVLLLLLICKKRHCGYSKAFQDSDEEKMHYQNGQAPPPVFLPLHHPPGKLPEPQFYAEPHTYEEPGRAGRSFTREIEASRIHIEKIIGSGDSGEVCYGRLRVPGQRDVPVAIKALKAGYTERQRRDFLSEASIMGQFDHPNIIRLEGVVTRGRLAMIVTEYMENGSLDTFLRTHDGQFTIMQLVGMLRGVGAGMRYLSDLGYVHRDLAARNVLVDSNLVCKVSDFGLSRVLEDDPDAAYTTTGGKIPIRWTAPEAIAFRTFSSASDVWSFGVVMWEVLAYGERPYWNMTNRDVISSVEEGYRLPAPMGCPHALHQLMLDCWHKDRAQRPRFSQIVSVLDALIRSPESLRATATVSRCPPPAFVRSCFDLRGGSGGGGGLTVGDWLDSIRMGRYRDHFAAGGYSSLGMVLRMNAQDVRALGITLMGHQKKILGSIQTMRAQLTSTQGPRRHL

LOK = biological target: T2, LOK (Homo sapiens, UniProt O94804); experiment: KINOMEscan active-site competitive binding assay; settings: slash = two separate measurements
T2 construct: purchased DiscoveRx (KINOMEscan service)
T2 sequence (O94804 whole entry): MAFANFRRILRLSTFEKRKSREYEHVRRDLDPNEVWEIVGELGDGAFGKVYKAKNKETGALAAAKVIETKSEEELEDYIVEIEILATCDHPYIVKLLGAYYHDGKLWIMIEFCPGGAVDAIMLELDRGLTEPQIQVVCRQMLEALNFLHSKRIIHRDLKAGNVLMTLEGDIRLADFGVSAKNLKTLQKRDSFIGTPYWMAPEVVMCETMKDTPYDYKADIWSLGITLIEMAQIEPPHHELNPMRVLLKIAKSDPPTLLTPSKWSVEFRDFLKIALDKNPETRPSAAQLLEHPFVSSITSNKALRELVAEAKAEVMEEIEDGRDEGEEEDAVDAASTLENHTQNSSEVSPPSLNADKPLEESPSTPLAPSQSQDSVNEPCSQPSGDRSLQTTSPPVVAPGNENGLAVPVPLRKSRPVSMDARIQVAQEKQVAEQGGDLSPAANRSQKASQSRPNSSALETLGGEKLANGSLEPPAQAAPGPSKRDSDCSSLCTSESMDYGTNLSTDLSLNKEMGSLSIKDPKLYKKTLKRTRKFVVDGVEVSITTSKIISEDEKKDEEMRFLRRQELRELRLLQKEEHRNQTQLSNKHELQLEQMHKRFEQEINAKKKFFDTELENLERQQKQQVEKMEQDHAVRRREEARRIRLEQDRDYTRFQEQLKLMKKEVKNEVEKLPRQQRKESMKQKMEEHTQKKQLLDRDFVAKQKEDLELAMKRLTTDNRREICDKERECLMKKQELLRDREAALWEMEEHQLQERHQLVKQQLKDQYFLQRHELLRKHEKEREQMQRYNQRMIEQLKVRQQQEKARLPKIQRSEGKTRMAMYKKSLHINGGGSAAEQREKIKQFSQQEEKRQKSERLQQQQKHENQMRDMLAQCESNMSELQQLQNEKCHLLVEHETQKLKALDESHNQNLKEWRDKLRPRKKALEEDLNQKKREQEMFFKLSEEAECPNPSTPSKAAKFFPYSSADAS

MAP4K4 = biological target: T3, MAP4K4 (Homo sapiens, UniProt O95819); experiment: KINOMEscan active-site competitive binding assay; settings: slash = two separate measurements
T3 construct: purchased DiscoveRx (KINOMEscan service)
T3 sequence (O95819 whole entry): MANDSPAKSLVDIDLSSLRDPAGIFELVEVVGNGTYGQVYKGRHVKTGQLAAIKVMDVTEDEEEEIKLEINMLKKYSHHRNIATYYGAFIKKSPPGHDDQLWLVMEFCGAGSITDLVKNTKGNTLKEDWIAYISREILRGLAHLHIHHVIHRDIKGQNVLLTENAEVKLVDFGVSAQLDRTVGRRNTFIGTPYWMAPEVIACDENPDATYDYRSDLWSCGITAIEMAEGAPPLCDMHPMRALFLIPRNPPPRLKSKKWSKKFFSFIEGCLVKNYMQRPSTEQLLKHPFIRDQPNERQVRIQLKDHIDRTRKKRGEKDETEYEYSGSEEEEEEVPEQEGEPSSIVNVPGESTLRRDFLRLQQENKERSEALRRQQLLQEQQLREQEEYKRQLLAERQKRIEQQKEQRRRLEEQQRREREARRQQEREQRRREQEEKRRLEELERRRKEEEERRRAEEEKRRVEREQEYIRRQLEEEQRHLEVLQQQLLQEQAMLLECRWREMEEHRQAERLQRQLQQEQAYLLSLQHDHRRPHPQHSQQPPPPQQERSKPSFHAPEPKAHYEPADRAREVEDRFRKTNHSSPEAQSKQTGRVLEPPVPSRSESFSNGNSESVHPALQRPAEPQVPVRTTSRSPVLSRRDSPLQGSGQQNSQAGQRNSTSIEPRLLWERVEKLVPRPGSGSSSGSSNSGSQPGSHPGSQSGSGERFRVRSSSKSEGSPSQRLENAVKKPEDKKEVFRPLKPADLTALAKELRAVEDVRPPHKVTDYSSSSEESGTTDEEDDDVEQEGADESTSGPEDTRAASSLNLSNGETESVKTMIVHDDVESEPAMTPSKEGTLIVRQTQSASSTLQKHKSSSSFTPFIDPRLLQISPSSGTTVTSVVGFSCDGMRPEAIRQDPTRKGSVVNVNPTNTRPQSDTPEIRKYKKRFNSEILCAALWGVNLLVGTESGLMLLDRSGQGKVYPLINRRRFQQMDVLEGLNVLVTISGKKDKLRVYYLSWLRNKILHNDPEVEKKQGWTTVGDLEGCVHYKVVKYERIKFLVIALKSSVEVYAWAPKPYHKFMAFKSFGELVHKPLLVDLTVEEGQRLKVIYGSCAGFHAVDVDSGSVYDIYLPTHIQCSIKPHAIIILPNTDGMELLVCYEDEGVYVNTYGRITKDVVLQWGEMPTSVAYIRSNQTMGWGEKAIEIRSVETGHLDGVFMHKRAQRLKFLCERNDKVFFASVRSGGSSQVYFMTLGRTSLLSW

MEK5 = biological target: T4, MEK5 (Homo sapiens, UniProt Q13163); experiment: KINOMEscan active-site competitive binding assay
T4 construct: purchased DiscoveRx (KINOMEscan service)
T4 sequence (Q13163 1-448): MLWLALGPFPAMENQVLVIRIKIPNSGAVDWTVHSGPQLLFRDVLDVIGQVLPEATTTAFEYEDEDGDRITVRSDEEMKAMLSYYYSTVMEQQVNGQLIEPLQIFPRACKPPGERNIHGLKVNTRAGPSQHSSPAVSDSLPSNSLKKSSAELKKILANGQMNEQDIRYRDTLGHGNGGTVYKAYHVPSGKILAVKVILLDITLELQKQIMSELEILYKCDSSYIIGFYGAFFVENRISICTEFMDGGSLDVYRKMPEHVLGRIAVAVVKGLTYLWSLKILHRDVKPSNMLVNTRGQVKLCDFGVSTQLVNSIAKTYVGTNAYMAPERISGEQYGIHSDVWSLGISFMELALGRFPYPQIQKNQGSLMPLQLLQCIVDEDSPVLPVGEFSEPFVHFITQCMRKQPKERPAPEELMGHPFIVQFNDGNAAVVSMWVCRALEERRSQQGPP

p38-alpha = biological target: T5, p38-alpha (Homo sapiens, UniProt Q16539); experiment: KINOMEscan active-site competitive binding assay; settings: slash = two separate measurements
T5 construct: purchased DiscoveRx (KINOMEscan service)
T5 sequence (Q16539 whole entry): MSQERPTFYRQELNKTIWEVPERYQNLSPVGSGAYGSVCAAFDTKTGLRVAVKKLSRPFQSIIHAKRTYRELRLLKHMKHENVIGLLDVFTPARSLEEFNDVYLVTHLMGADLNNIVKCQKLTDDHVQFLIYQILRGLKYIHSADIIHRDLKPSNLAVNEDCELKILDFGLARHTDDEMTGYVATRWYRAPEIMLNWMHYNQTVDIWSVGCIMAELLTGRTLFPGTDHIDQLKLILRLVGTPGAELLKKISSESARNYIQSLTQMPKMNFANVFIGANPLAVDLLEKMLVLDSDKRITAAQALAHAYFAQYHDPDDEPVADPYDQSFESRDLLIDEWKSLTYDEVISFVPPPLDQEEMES

TRKC = biological target: T6, TRKC (Homo sapiens, UniProt Q16288); experiment: KINOMEscan active-site competitive binding assay; settings: slash = two separate measurements
T6 construct: purchased DiscoveRx
T6 sequence (Q16288 32-839): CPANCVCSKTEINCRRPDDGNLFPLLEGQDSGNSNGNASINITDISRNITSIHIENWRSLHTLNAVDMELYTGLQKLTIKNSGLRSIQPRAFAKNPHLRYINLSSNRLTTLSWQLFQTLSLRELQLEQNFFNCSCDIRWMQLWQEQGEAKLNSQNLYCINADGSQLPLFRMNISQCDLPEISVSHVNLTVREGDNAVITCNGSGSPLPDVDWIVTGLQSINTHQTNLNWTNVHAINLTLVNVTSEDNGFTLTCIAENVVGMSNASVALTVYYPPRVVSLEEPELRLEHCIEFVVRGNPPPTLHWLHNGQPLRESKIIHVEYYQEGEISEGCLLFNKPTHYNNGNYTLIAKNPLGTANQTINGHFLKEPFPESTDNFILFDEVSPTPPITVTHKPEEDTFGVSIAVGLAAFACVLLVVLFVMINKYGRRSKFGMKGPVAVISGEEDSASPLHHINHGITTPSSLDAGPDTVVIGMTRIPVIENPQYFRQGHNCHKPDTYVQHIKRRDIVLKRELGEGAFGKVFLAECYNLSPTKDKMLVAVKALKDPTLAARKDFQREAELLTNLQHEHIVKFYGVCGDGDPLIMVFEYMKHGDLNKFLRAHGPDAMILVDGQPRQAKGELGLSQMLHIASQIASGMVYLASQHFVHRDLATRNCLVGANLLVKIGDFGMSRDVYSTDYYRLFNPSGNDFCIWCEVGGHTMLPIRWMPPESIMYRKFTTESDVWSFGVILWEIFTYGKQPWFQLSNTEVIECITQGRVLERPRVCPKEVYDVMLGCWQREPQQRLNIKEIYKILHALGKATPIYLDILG

HT‐29 = HT‐29 colon cancer xenograft in NMRI nu/nu mice; format: in vivo, mouse; settings: end of study day 39
Protocol: Mouse experiments were approved by the relevant regulatory agency of the federal state of Berlin (Landesamt für Gesundheit und Soziales Berlin, approval number G0221/03). Mice were maintained in individually ventilated cages in groups of four mice per cage. They received autoclaved food and bedding (Ssniff, Soest, Germany) and acidified (pH 4.0) tap water ad libitum. The animal facility was equipped with an automatic 12 h light/dark regulation, temperature regulation at 22 ± 2°C, and relative humidity of 50 ± 10%. Female NMRI nu/nu mice (purchased from Charles River, Sulzfeld, Germany) were inoculated with 1 × 10^7 MDA‐MB‐231 or HT‐29 cells, which were allowed to grow subcutaneously to a palpable size of approximately 60–100 mm^3. […] All administrations were performed in the morning, without anesthesia. Tumor volume was determined twice per week using caliper measurements, and the volume was calculated using the formula (D × d^2)/2, with d defined as the minor axis and D as the major axis of the measurement. Tumor growth inhibition was calculated as relative tumor volume in relation to the first treatment day.
Changes in tumor volume were statistically evaluated by two‐way repeated‐measures analysis of variance, followed by Bonferroni correction, using GraphPad Prism 5 (San Diego, CA), and P < 0.05 was regarded as significant. Additionally, body weight of all mice was determined twice weekly, and the health status of the animals, including behavioral changes, was recorded daily.

[1] = system: lung tumor cell lines expressing wt or mutant DDR2; experiment: Preliminary in vitro proliferation, lung tumor cell lines expressing wt or mutant DDR2; format: cell-based; settings: unpubl. data

Row | Compound | pKd (EPHA8) | pKd (LOK) | pKd (MAP4K4) | pKd (MEK5) | pKd (p38-alpha) | pKd (TRKC) | Tumor growth inhibition (%) (HT‐29; 3 mg/kg/day oral for 27 days) | Tumor growth inhibition (%) (HT‐29; 10 mg/kg/day oral for 27 days) | Inhibition of proliferation [1]
1 | CNC(=O)c1cc(Oc2ccc(NC(=O)Nc3ccc(Cl)c(C(F)(F)F)c3)c(F)c2)cc[n+]1[O-] [M‐2] | 7.21 | 8.03 | 7.38 | 8.00 | 7.77 | 7.82 | 35% | 59% | only moderate inhibition
2 | NC(=O)c1cc(Oc2ccc(NC(=O)Nc3ccc(Cl)c(C(F)(F)F)c3)c(F)c2)cc[n+]1[O-] [M‐5] | 7.14 | 7.96 | 7.05 | 8.00 | 7.32 | 7.25 | 13% | 66% | only moderate inhibition
3 | CNC(=O)c1cc(Oc2ccc(NC(=O)Nc3ccc(Cl)c(C(F)(F)F)c3)c(F)c2)ccn1 [Regorafenib, reference compound] | 6.85 and 6.89 | 7.82 and 8.00 | 6.35 and 6.40 | 7.40 | 7.24 and 7.32 | 6.74 and 6.55 | 34% | 67% | only moderate inhibition
